According to the SangsterLogP compilation:

Row | Compound | logP
1 | CCn1cnc2c(N)nc(Cl)nc21 | 1.16
2 | Nc1nc(Cl)nc2c1nc(Br)n2C1CC(O)C(CO)O1 (stereo not given) | 0.9
3 | CNc1nc(Cl)nc2c1ncn2[C@H]1C[C@H](O)[C@@H](CO)O1 | 0.91
4 | OCCNc1nc(Cl)nc2c1ncn2[C@H]1C[C@@H](O)[C@@H](CO)O1 | 0.47
5 | Nc1nc(Cl)nc2nc[nH]c12 | 0.35
6 | OCC1OC(n2cnc3c(NC4CCCCC4)nc(Cl)nc32)CC1O (stereo not given) | 3

Second part, the compound after the results:

Row | logP | Compound
7 | 0.55 | OC[C@H]1O[C@@H](n2nnc3ccccc32)C[C@@H]1O
8 | 1.06 | OC[C@H]1O[C@@H](n2nc3ccccc3n2)C[C@@H]1O
9 | 0.38 | Nc1nc(Cl)nc2c1cnn2[C@H]1C[C@H](O)[C@@H](CO)O1
10 | -0.01 | Nc1ncnc2ncn([C@H]3C[C@H](O)[C@@H](CO)O3)c12
11 | 0.69 | OC[C@H]1O[C@@H](n2cnc3ccccc32)C[C@@H]1O
12 | 0.38 | Nc1nc(Cl)nc2c1ccn2[C@H]1C[C@H](O)[C@@H](CO)O1
13 | 0.41 | Nc1nc(Br)nc2c1ncn2C1CC(O)C(CO)O1 (stereo not given)
14 | -0.68 | Nc1ncnc2c1ncn2[C@H]1C[C@H](O)[C@@H](CO)O1
15 | 2.48 | OCC1OC(n2cnc3c(NCc4ccccc4)nc(Cl)nc32)CC1O (stereo not given)
